Values belong to the compound of their own block, whether it stands above or below them. Activity calls are given as the source filed them.
Columns and labels:
[1] = biological target: Sphingosine 1-phosphate receptor 4 (Homo sapiens, UniProt O95977); test: Fluorescence dose response cell-based high throughput screening assay for agonists of the Sphingosine 1-Phosphate Receptor 4 (S1P4). [Related pubchem assays: 1509 (Primary screen.), 1523 (Confirmation screen in triplicates.)]; format: functional
[2] = biological target: Sphingosine 1-phosphate receptor 1 (Homo sapiens, UniProt P21453); test: Fluorescence-based counterscreen assay for S1P4 agonists: Cell-based dose response high throughput screening assay to identify agonists of the Sphingosine 1-Phosphate Receptor 1 (S1P1). [Related pubchem assays (depositor defined):AID1509, AID1523, AID1801, AID463107, AID463118, AID463119, AID463122, AID463123, AID463129, AID463225, AID504400, AID504460]; format: functional
[3] = biological target: T1, E3 ubiquitin-protein ligase XIAP (Homo sapiens, UniProt P98170); test: SAR analysis of Antagonists of IAP-family anti-apoptotic proteins. [Related pubchem assays (depositor defined):AID1018, AID1449, AID1513, AID1514, AID1638]
[4] = biological target: T1, E3 ubiquitin-protein ligase XIAP; test: SAR analysis of Antagonists of XIAP-Bir3 domain of IAP-family anti-apoptotic proteins. [Related pubchem assays (depositor defined):AID1018, AID1449, AID1513, AID1514, AID1638]
Cannabinoid receptor 2 [5] = biological target: T2, Cannabinoid receptor 2 (Homo sapiens, UniProt P34972); test: SAR analysis of agonists of the Cannabinoid Receptor 2 using an Image-Based Assay. [Related pubchem assays (depositor defined):AID2013, AID2026]; format: functional
[6] = biological target: T3, G-protein coupled receptor 55 (Homo sapiens, UniProt Q9Y2T6); test: GPR55 antagonists blocking LPI-driven arrestin recruitment, primary screen, imaging, U2OS, beta-arrestin-GFP, LPI agonist (AID 2013); format: functional;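 note: antagonist potency measured as reduced agonist-driven arrestin aggregation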
[7] = biological target: T3, G-protein coupled receptor 55; test: GPR55 antagonist potency of analogs, SAR follow-up, imaging, U2OS, beta-arrestin-GFP, LPI agonist, set 2 (AID 2820); format: functional
Cannabinoid receptor 2 [8] = biological target: T2, Cannabinoid receptor 2; test: SAR analysis of antagonists of the Cannabinoid Receptor 2 using an Image-Based Assay. [Related pubchem assays (depositor defined):AID2013, AID2026]; format: functional
[9] = biological target: T4, G-protein coupled receptor 35 (Homo sapiens, UniProt Q9HC97); test: SAR analysis of Agonists of the GPR35 Receptor using an Image-Based Assay - Set 2. [Related pubchem assays (depositor defined):AID2013, AID2026]; format: functional
Cannabinoid receptor 1 [10] = biological target: T5, Cannabinoid receptor 1 (Homo sapiens, UniProt P21554); test: SAR analysis of agonists of the Cannabinoid Receptor 1 using an Image-Based Assay - Set 2. [Related pubchem assays (depositor defined):AID2013, AID2026]; format: functional
[11] = biological target: T4, G-protein coupled receptor 35; test: SAR analysis of Antagonists of the GPR35 Receptor using an Image-Based Assay - Set 3. [Related pubchem assays (depositor defined):AID2013, AID2026]; format: functional
Cannabinoid receptor 1 [12] = biological target: T5, Cannabinoid receptor 1; test: SAR analysis of antagonists of the Cannabinoid Receptor 1 using an Image-Based Assay - Set 2. [Related pubchem assays (depositor defined):AID2013, AID2026]; format: functional
[13] = growth suppression of beta-catenin-knockout colon cells, dose response, cell-based, HCT116, human colon tumor (AID 1045); format: functional;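 note: HCT116 colon tumor cells with beta catenin knocked out; cells exposed to compound for 60 hours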
Estrogen receptor = biological target: T6, Estrogen receptor (Homo sapiens, UniProt P03372);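 note: potency for inhibiting coactivator peptide recruitment to the receptor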
T6 sequence (P03372 whole entry): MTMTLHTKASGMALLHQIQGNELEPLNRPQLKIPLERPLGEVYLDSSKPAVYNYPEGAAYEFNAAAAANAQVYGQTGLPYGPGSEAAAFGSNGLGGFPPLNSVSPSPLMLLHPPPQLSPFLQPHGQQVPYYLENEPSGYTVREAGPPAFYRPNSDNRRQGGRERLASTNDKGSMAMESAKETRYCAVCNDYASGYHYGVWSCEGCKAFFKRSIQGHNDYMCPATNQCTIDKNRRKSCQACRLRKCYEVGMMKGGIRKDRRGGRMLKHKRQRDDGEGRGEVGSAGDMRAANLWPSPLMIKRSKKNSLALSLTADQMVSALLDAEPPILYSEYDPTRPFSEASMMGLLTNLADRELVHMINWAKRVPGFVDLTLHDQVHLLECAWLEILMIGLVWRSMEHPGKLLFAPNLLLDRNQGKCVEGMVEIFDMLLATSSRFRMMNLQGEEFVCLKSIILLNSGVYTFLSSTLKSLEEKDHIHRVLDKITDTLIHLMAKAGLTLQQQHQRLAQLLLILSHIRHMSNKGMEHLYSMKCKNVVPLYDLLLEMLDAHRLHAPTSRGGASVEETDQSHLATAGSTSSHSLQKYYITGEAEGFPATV

[14] = growth suppression of PTEN-null colon cells, dose response, cell-based, HCT116 PTEN knockout (AID 1047); format: functional;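 note: HCT116 colon tumor cells with PTEN knocked out; cells exposed to compound for 60 hours before readout; potency for loss of cell viability measured by luminescence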
[15] = biological target: T7, Carboxy-terminal domain RNA polymerase II polypeptide A small phosphatase 1 (Homo sapiens, UniProt Q9GZU7); test: inhibitors of CTDSP1, concentration-response testing, biochemical assay, absorbance-based, actives from ultra-high-throughput screening (AID 540297); format: functional
T7 sequence (Q9GZU7 whole entry): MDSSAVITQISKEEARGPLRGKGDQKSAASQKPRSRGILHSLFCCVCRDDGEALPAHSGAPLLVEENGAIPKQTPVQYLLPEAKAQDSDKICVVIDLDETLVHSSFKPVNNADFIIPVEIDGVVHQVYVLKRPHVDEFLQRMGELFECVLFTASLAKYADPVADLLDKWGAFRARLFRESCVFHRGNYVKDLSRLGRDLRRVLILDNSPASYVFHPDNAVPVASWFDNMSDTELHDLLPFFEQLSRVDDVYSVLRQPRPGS

[16] = cytotoxicity toward NIH3T3 fibroblasts, dose response, counter-screen, cell-based, ATP luminescence, mouse fibroblasts (AID 2010); format: functional;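 note: cells exposed to compound for about 90 hours before reading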
Coagulation factor XII = biological target: T8, Coagulation factor XII (Homo sapiens, UniProt P00748); test: Factor XIIa Dose Response Confirmation from Single Well HTS. [Related pubchem assays (depositor defined):AID701]; format: functional
T8 sequence (P00748 whole entry): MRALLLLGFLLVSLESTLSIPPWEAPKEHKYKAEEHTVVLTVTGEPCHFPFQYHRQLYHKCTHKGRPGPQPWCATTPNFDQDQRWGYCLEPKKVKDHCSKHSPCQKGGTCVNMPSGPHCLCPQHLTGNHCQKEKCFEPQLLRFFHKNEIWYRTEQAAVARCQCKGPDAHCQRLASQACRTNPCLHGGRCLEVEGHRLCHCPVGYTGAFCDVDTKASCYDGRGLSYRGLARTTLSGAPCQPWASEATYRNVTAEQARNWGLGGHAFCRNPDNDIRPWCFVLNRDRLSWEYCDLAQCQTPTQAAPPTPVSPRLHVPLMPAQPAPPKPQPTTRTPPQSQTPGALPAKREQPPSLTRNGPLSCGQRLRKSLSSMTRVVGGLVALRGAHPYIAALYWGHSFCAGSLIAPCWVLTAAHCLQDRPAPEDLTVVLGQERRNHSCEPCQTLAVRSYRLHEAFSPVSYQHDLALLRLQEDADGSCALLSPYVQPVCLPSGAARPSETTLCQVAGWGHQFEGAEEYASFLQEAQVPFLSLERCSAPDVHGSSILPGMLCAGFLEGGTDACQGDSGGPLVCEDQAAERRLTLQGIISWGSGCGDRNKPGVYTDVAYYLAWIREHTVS

[17] = inhibitors of intracellular T. cruzi replication, confirmation, NIH3T3 host cells, beta-gal luminescence (AID 2044); format: functional, cell-based;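 note: intracellular parasites grown in NIH/3T3 mouse fibroblasts as host cells; luminescent beta-galactosidase reporter signal from transgenic T. cruzi replicating inside host cells; inhibitors lower the luminescence signal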
[18] = biological target: T9, Kappa-type opioid receptor (Homo sapiens, UniProt P41145); test: SAR analysis of small molecule antagonists of the kappa opioid receptor via a luminescent beta-arrestin assay - Set 4. [Related pubchem assays (depositor defined):AID1777, AID1778, AID1785, AID1786, AID1966, AID2133, AID2136, AID2285]; format: functional
[19] = biological target: T9, Kappa-type opioid receptor; test: SAR analysis of small molecule antagonists of the kappa opioid receptor via a luminescent beta-arrestin assay - Set 5. [Related pubchem assays (depositor defined):AID1778, AID1785]; format: functional
Cannabinoid receptor 2 [20] = biological target: T2, Cannabinoid receptor 2; test: SAR analysis of antagonists of the Cannabinoid Receptor 2 using an Image-Based Assay - Set 2. [Related pubchem assays (depositor defined):AID1961, AID1965]; format: functional
Cannabinoid receptor 2 [21] = biological target: T2, Cannabinoid receptor 2; test: SAR analysis of agonists of the Cannabinoid Receptor 2 using an Image-Based Assay - Set 2. [Related pubchem assays (depositor defined):AID1961, AID1965]; format: functional
[22] = biological target: T3, G-protein coupled receptor 55; test: SAR analysis of selective Agonists of GPR55 using an Image-Based Assay - Set 2. [Related pubchem assays (depositor defined):AID1961, AID1965]; format: functional
Cannabinoid receptor 1 [23] = biological target: T5, Cannabinoid receptor 1; test: SAR analysis of agonists of the Cannabinoid Receptor 1 using an Image-Based Assay - Set 3. [Related pubchem assays (depositor defined):AID1961, AID1965]; format: functional
Cannabinoid receptor 1 [24] = biological target: T5, Cannabinoid receptor 1; test: SAR analysis of antagonists of the Cannabinoid Receptor 1 using an Image-Based Assay - Set 3. [Related pubchem assays (depositor defined):AID1961, AID1965]; format: functional
[25] = biological target: T4, G-protein coupled receptor 35; test: SAR analysis of Agonists of the GPR35 Receptor using an Image-Based Assay - Set 3. [Related pubchem assays (depositor defined):AID1961, AID1965]; format: functional
[26] = biological target: T4, G-protein coupled receptor 35; test: SAR analysis of Antagonists of the GPR35 Receptor using an Image-Based Assay - Set 4. [Related pubchem assays (depositor defined):[…]]; format: functional
[27] = biological target: T9, Kappa-type opioid receptor; test: KOR agonist analogs, arrestin-GFP redistribution, SAR follow-up, imaging, image-based, set 3 (AID 488833); format: functional
Mu-type opioid receptor = Mu-type opioid receptor (Homo sapiens, UniProt P35372); test: SAR Analysis of Agonists of the MOR Receptor using an Image-Based Assay - Set 3. [Related pubchem assays (depositor defined):AID1777, AID1785, AID1786, AID1966, AID2133, AID2136, AID2284, AID2285, AID2352]; format: functional
[28] = biological target: T9, Kappa-type opioid receptor; test: SAR analysis of small molecule agonists of the kappa opioid receptor via a luminescent beta-arrestin assay - Set 3. [Related pubchem assays (depositor defined):AID1777, AID1785, AID1786, AID1966, AID2133, AID2136, AID2284, AID2500]; format: functional
[29] = biological target: Delta-type opioid receptor (Homo sapiens, UniProt P41143); test: SAR Analysis of Agonists of the DOR Receptor using an Image-Based Assay - Set 3. [Related pubchem assays (depositor defined):AID1777, AID1786]; format: functional
[30] = Luminescence Cell-Based Dose Retest to Confirm Inhibitors of Cancer Stem Cells. [Related pubchem assays (depositor defined):AID2717, AID2721]; format: functional; conditions: Homo sapiens
[31] = biological target: DNA damage-inducible transcript 3 protein (Mus musculus, UniProt P35639); format: functional, Cricetulus griseus
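Throughout, for AC50: cells exposed to compound for roughly 70 hours or longer before luminescence read.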

T4 sequence (Q9HC97 whole entry): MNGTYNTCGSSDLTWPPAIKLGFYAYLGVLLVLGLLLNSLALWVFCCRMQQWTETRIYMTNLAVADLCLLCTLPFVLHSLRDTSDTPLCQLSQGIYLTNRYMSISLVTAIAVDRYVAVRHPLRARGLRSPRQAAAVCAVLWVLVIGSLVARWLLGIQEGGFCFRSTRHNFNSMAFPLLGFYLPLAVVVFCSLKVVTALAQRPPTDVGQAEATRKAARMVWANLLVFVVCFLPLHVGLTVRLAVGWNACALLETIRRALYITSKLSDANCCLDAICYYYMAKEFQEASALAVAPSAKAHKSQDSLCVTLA
T3 sequence (Q9Y2T6 whole entry): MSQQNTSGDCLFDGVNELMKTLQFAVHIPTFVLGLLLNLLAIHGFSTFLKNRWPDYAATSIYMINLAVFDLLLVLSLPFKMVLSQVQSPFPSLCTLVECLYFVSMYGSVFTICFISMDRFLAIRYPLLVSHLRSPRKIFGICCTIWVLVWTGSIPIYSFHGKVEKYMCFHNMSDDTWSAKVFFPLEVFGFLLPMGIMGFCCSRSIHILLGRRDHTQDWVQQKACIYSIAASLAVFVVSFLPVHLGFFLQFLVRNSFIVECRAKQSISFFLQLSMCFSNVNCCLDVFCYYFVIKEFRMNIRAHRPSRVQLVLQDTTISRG
T5 sequence (P21554 whole entry): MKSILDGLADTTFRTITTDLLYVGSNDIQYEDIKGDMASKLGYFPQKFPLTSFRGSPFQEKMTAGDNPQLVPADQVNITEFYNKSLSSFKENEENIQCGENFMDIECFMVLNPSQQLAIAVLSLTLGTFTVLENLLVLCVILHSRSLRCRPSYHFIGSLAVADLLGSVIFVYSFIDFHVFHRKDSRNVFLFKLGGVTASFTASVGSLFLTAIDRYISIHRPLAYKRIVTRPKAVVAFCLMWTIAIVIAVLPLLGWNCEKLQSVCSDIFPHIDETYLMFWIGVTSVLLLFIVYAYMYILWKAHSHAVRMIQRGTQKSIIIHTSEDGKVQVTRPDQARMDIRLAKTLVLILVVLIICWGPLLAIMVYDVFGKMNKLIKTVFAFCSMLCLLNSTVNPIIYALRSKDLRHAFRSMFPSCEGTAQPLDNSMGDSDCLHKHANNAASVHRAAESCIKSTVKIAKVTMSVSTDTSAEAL
T9 sequence (P41145 whole entry): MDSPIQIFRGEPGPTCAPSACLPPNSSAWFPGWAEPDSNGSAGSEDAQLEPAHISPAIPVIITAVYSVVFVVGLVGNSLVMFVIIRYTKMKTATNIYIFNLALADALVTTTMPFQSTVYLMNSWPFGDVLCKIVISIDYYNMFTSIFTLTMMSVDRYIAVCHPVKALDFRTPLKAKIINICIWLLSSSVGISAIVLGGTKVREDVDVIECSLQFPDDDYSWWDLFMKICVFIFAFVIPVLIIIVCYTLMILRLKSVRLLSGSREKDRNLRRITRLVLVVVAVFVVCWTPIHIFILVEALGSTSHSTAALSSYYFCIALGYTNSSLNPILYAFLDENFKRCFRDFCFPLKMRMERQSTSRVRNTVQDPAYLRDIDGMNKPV
T2 sequence (P34972 whole entry): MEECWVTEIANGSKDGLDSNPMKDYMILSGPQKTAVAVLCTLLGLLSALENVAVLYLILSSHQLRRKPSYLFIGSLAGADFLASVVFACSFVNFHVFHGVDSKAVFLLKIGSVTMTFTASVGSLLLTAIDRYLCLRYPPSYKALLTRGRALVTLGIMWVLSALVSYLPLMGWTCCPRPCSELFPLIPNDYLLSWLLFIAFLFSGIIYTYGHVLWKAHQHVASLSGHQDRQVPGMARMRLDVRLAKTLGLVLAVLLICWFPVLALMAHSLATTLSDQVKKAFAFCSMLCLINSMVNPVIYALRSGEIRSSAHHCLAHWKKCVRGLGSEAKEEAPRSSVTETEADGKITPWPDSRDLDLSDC
T1 sequence (P98170 whole entry, the tested form may be a part): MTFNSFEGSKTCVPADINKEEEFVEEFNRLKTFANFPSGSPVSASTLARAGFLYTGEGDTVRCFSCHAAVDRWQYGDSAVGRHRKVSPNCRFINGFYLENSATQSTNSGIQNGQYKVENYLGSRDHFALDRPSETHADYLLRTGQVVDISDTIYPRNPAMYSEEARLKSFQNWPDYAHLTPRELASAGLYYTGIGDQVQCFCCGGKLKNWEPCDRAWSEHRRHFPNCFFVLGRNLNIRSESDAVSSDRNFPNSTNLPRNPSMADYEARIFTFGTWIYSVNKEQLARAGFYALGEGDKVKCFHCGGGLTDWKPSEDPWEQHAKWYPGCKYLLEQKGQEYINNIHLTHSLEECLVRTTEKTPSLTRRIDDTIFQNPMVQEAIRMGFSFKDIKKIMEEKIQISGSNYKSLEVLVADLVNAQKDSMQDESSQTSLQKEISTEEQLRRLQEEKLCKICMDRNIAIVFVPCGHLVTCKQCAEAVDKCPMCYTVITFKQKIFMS
Sequence of Sphingosine 1-phosphate receptor 4 (O95977 whole entry): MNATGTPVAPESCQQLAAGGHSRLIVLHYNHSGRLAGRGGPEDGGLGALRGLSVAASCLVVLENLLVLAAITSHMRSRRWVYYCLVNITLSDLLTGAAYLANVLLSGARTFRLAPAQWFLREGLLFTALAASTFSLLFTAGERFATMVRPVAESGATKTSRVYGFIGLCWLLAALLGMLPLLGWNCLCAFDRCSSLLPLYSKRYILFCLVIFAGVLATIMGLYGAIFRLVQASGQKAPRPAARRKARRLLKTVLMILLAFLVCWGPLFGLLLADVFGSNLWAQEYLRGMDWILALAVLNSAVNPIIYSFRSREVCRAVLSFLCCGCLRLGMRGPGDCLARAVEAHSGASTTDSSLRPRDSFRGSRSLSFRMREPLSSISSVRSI
Sequence of Mu-type opioid receptor (P35372 whole entry): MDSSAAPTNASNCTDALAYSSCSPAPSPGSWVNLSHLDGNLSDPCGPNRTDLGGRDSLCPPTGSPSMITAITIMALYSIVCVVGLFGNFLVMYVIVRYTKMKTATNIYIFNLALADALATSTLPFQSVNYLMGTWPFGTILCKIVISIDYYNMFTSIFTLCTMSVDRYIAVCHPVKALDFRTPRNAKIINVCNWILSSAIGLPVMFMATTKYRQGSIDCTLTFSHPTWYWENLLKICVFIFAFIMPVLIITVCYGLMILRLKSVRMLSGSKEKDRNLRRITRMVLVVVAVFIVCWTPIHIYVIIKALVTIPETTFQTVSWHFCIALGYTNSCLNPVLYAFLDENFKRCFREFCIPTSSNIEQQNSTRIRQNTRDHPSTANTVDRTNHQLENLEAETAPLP
Sequence of Delta-type opioid receptor (P41143 whole entry): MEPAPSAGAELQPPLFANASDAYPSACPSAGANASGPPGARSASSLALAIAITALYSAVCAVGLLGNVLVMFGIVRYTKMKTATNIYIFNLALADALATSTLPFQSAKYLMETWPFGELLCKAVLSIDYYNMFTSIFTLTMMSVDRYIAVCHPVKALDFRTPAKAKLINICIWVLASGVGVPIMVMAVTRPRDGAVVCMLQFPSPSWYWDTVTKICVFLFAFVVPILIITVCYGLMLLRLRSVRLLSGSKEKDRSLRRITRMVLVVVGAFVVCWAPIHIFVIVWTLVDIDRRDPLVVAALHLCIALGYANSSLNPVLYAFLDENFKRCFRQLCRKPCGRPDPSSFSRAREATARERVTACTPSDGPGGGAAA
Sequence of DNA damage-inducible transcript 3 protein (P35639 whole entry): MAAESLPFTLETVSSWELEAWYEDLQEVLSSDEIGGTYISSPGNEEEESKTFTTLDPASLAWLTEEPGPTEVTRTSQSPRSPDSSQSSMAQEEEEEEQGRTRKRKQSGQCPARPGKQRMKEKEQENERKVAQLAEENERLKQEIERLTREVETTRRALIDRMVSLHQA
Sequence of Sphingosine 1-phosphate receptor 1 (P21453 whole entry): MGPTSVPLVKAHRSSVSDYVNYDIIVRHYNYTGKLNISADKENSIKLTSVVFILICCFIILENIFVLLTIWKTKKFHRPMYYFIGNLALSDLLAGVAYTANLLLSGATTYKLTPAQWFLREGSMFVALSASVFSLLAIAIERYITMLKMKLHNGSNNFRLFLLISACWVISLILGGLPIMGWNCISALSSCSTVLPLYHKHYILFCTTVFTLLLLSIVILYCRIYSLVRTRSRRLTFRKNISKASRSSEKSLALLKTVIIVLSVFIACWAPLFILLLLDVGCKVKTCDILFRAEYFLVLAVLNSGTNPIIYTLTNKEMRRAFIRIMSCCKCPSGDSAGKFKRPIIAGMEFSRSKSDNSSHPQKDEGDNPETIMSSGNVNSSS

SMILES: CC(C)c1cc(C(=O)OCC(=O)NC(=O)NCc2ccco2)c(O)c(C(C)C)c1
EC50 [1]: > 49.8 µM (not active) | EC50 [2]: > 49.8 µM (inactive)

SMILES: Cc1ccc2[nH]c(/C(C#N)=C\c3ccc(N4CCCCC4)c([N+](=O)[O-])c3)nc2c1
EC50 [13]: 22 µM (active) | IC50 (Estrogen receptor): 4.23 µM (active) | EC50 [14]: 19.4 µM (active) | IC50 [15]: 2.45 µM (active) | EC50 [16]: > 60 µM (inconclusive) | IC50 (Coagulation factor XII): 1.02 µM (active) | EC50 [17]: 2 µM (active)

SMILES: Cc1ccc(S(=O)(=O)NCc2cccc(C(=O)NCCN(Cc3ccccc3)C(C)C)c2)cc1
IC50 [18]: > 20 µM (inactive) | IC50 [19]: > 20 µM (inactive)

SMILES: CCN(CC)S(=O)(=O)c1ccc(N2CCC(C)CC2)c(C(=O)N2CCN(c3ccccc3)CC2)c1
IC50 (Cannabinoid receptor 2 [20]): > 32 µM (inactive) | EC50 (Cannabinoid receptor 2 [21]): > 32 µM (inactive) | EC50 [22]: > 32 µM (inactive) | EC50 (Cannabinoid receptor 1 [23]): > 32 µM (inactive) | IC50 (Cannabinoid receptor 1 [24]): > 32 µM (inactive) | EC50 [25]: > 32 µM (inactive) | IC50 [26]: > 32 µM (inactive)

SMILES: Cc1ccc(COc2ccc(Br)cc2/C=N/O)cc1
AC50 [30]: 6.11 µM (active) | Absolute IC50 (CHOP) [31]: 10 µM

More lines, now with the values ahead:

IC50 [3]: 11.4 µM (active) | IC50 [4]: 94.9 µM (active)
SMILES: CN[C@@H](C)C(=O)N[C@H](C(=O)N1CCC[C@H]1C(=O)Nc1ccc2ncccc2c1)C(C)C

EC50 (Cannabinoid receptor 2 [5]): > 32 µM (inactive) | IC50 [6]: 0.869 µM (active) | IC50 [7]: 1.44 µM (active) | IC50 (Cannabinoid receptor 2 [8]): > 32 µM (inactive) | EC50 [9]: > 32 µM (inactive) | EC50 (Cannabinoid receptor 1 [10]): > 32 µM (inactive) | IC50 [11]: > 32 µM (inactive) | IC50 (Cannabinoid receptor 1 [12]): 24.1 µM (inactive)
SMILES: Cc1cccc(-c2cc(C(=O)Nc3sc(C)c(C)c3C(N)=O)c3ccccc3n2)c1

EC50 [27]: 1.73 µM (active) | EC50 (Mu-type opioid receptor): > 32 µM (inactive) | EC50 [28]: 3.04 µM (active) | EC50 [29]: > 32 µM (inactive)
SMILES: Fc1ccc(CSc2nnc(-c3ccccn3)n2Cc2cccs2)c(F)c1F
